Legend:
Experiment in all cases: relative viability (nuclei count vs DMSO), 5 days (fraction); higher = more cells survive
NCI-H2228 = tested on: NCI-H2228
Outline: (§1)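 Lung cancer cell lines in 1536-well plates were dosed by pin tool the day after seeding, either with one drug alone or with a fixed anchor-drug dose plus five library-drug doses (not always all listed) in √10 steps. After 5 days, cells were fixed and their nuclei stained in one step (final 0.05% Triton X-100, 1% formaldehyde, 1 ug/ml Hoechst), then counted on 4× images. Relative viability is the nuclei count in treated wells divided by that in vehicle wells. Values are medians of duplicate plates.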

NCI-H2170 = tested on: NCI-H2170
Outline: as §1

NCI-H1792 = tested on: NCI-H1792
Outline: as §1

NCI-H2009 = tested on: NCI-H2009
Outline: as §1

NCI-H1734 = tested on: NCI-H1734
Outline: as §1

EKVX = tested on: EKVX
Outline: as §1

NCI-H596 = tested on: NCI-H596
Outline: as §1

NCI-H2342 = tested on: NCI-H2342
Outline: as §1

NCI-H2405 = tested on: NCI-H2405
Outline: as §1

HARA = tested on: HARA
Outline: as §1

NCI-H647 = tested on: NCI-H647
Outline: as §1

NCI-H2087 = tested on: NCI-H2087
Outline: as §1

LOU-NH91 = tested on: LOU-NH91
Outline: as §1

NCI-H1395 = tested on: NCI-H1395
Outline: as §1

NCI-H1355 = tested on: NCI-H1355
Outline: as §1

BEN = tested on: BEN
Outline: as §1

SK-MES-1 = tested on: SK-MES-1
Outline: as §1

SK-LU-1 = tested on: SK-LU-1
Outline: as §1

LC-2-ad = tested on: LC-2-ad
Outline: as §1

NCI-H1437 = tested on: NCI-H1437
Outline: as §1

NCI-H661 = tested on: NCI-H661
Outline: as §1

HCC-44 = tested on: HCC-44
Outline: as §1

HCC-827 = tested on: HCC-827
Outline: as §1

HCC-366 = tested on: HCC-366
Outline: as §1

Compound: CC(C)Oc1cc(Nc2nc(N[C@@H](C)c3ccc(F)cn3)ncc2Cl)n[nH]1 [AZ23] + COc1cccc2cc(-c3nc([C@H]4CC[C@H](C(=O)O)CC4)n4ncnc(N)c34)[nH]c12 [OSI-027] (partner 0.5 µM)
- relative viability (NCI-H2228; first compound 0.01 µM): 0.785
- relative viability (NCI-H2228; first compound 0.03162 µM): 0.776
- relative viability (NCI-H2228; first compound 0.3162 µM): 0.671
- relative viability (NCI-H2170; first compound 0.01 µM): 0.664
- relative viability (NCI-H2170; first compound 0.03162 µM): 0.722
- relative viability (NCI-H2170; first compound 0.3162 µM): 0.726
- relative viability (NCI-H1792; first compound 0.01 µM): 0.752
- relative viability (NCI-H1792; first compound 0.03162 µM): 0.782
- relative viability (NCI-H1792; first compound 0.3162 µM): 0.841
- relative viability (NCI-H2009; first compound 0.01 µM): 0.651
- relative viability (NCI-H2009; first compound 0.03162 µM): 0.706
- relative viability (NCI-H2009; first compound 0.3162 µM): 0.765
- relative viability (NCI-H1734; first compound 0.01 µM): 0.628
- relative viability (NCI-H1734; first compound 0.03162 µM): 0.62
- relative viability (NCI-H1734; first compound 0.3162 µM): 0.588
- relative viability (EKVX; first compound 0.01 µM): 0.801
- relative viability (EKVX; first compound 0.03162 µM): 0.636
- relative viability (EKVX; first compound 0.3162 µM): 0.66
- relative viability (NCI-H596; first compound 0.01 µM): 0.711
- relative viability (NCI-H596; first compound 0.03162 µM): 0.834
- relative viability (NCI-H596; first compound 0.3162 µM): 0.671
- relative viability (NCI-H2342; first compound 0.01 µM): 0.702
- relative viability (NCI-H2342; first compound 0.03162 µM): 0.593
- relative viability (NCI-H2342; first compound 0.3162 µM): 0.569
- relative viability (NCI-H2405; first compound 0.01 µM): 0.555
- relative viability (NCI-H2405; first compound 0.03162 µM): 0.667
- relative viability (NCI-H2405; first compound 0.3162 µM): 0.614
- relative viability (HARA; first compound 0.03162 µM): 0.686
- relative viability (HARA; first compound 0.3162 µM): 0.415
- relative viability (NCI-H647; first compound 0.01 µM): 0.765
- relative viability (NCI-H647; first compound 0.03162 µM): 0.745
- relative viability (NCI-H647; first compound 0.3162 µM): 0.789
- relative viability (NCI-H2087; first compound 0.01 µM): 0.675
- relative viability (NCI-H2087; first compound 0.03162 µM): 0.477
- relative viability (NCI-H2087; first compound 0.3162 µM): 0.459
- relative viability (LOU-NH91; first compound 0.01 µM): 0.692
- relative viability (LOU-NH91; first compound 0.03162 µM): 0.753
- relative viability (LOU-NH91; first compound 0.3162 µM): 0.704
- relative viability (NCI-H1395; first compound 0.03162 µM): 0.708
- relative viability (NCI-H1395; first compound 0.3162 µM): 0.655
- relative viability (NCI-H1355; first compound 0.01 µM): 0.401
- relative viability (NCI-H1355; first compound 0.03162 µM): 0.421
- relative viability (NCI-H1355; first compound 0.3162 µM): 0.361
- relative viability (BEN; first compound 0.01 µM): 0.312
- relative viability (BEN; first compound 0.03162 µM): 0.287
- relative viability (BEN; first compound 0.3162 µM): 0.268
- relative viability (SK-MES-1; first compound 0.03162 µM): 0.711
- relative viability (SK-MES-1; first compound 0.3162 µM): 0.745
- relative viability (SK-LU-1; first compound 0.03162 µM): 0.403
- relative viability (SK-LU-1; first compound 0.3162 µM): 0.379
- relative viability (LC-2-ad; first compound 0.01 µM): 0.953
- relative viability (LC-2-ad; first compound 0.03162 µM): 0.802
- relative viability (LC-2-ad; first compound 0.3162 µM): 0.672
- relative viability (NCI-H1437; first compound 0.01 µM): 0.878
- relative viability (NCI-H1437; first compound 0.03162 µM): 1.01
- relative viability (NCI-H1437; first compound 0.3162 µM): 1.05
- relative viability (NCI-H661; first compound 0.01 µM): 0.666
- relative viability (NCI-H661; first compound 0.03162 µM): 0.766
- relative viability (NCI-H661; first compound 0.3162 µM): 0.755
- relative viability (HCC-44; first compound 0.01 µM): 0.538
- relative viability (HCC-44; first compound 0.03162 µM): 0.661
- relative viability (HCC-44; first compound 0.3162 µM): 0.375
- relative viability (HCC-827; first compound 0.01 µM): 0.78
- relative viability (HCC-827; first compound 0.03162 µM): 0.793
- relative viability (HCC-827; first compound 0.3162 µM): 0.882
- relative viability (HCC-366; first compound 0.01 µM): 1.06
- relative viability (HCC-366; first compound 0.03162 µM): 0.872
- relative viability (HCC-366; first compound 0.3162 µM): 1.05

Compound: CC(C)Oc1cc(Nc2nc(N[C@@H](C)c3ccc(F)cn3)ncc2Cl)n[nH]1 [AZ23] + N=C(N)NC(=N)NCCc1ccccc1 [Phenformin] (partner 250 µM)
- relative viability (NCI-H2228; first compound 0.01 µM): 0.401
- relative viability (NCI-H2228; first compound 0.03162 µM): 0.302
- relative viability (NCI-H2228; first compound 0.3162 µM): 0.252
- relative viability (NCI-H2170; first compound 0.01 µM): 0.463
- relative viability (NCI-H2170; first compound 0.03162 µM): 0.424
- relative viability (NCI-H2170; first compound 0.3162 µM): 0.489
- relative viability (NCI-H1792; first compound 0.03162 µM): 0.397
- relative viability (NCI-H1792; first compound 0.3162 µM): 0.239
- relative viability (NCI-H2009; first compound 0.01 µM): 0.508
- relative viability (NCI-H2009; first compound 0.03162 µM): 0.539
- relative viability (NCI-H2009; first compound 0.3162 µM): 0.63
- relative viability (NCI-H1734; first compound 0.01 µM): 0.335
- relative viability (NCI-H1734; first compound 0.03162 µM): 0.451
- relative viability (NCI-H1734; first compound 0.3162 µM): 0.439
- relative viability (EKVX; first compound 0.01 µM): 0.224
- relative viability (EKVX; first compound 0.03162 µM): 0.237
- relative viability (EKVX; first compound 0.3162 µM): 0.231
- relative viability (NCI-H596; first compound 0.01 µM): 0.787
- relative viability (NCI-H596; first compound 0.03162 µM): 0.87
- relative viability (NCI-H596; first compound 0.3162 µM): 0.739
- relative viability (NCI-H2342; first compound 0.01 µM): 0.683
- relative viability (NCI-H2342; first compound 0.03162 µM): 0.634
- relative viability (NCI-H2342; first compound 0.3162 µM): 0.564
- relative viability (NCI-H2405; first compound 0.01 µM): 0.33
- relative viability (NCI-H2405; first compound 0.03162 µM): 0.429
- relative viability (NCI-H2405; first compound 0.3162 µM): 0.382
- relative viability (HARA; first compound 0.03162 µM): 0.589
- relative viability (HARA; first compound 0.3162 µM): 0.471
- relative viability (NCI-H647; first compound 0.01 µM): 0.558
- relative viability (NCI-H647; first compound 0.03162 µM): 0.797
- relative viability (NCI-H647; first compound 0.3162 µM): 0.604
- relative viability (NCI-H2087; first compound 0.01 µM): 0.645
- relative viability (NCI-H2087; first compound 0.03162 µM): 0.449
- relative viability (NCI-H2087; first compound 0.3162 µM): 0.458
- relative viability (LOU-NH91; first compound 0.01 µM): 0.713
- relative viability (LOU-NH91; first compound 0.03162 µM): 0.755
- relative viability (LOU-NH91; first compound 0.3162 µM): 0.728
- relative viability (NCI-H1395; first compound 0.03162 µM): 0.483
- relative viability (NCI-H1395; first compound 0.3162 µM): 0.451
- relative viability (NCI-H1355; first compound 0.01 µM): 0.462
- relative viability (NCI-H1355; first compound 0.03162 µM): 0.483
- relative viability (NCI-H1355; first compound 0.3162 µM): 0.455
- relative viability (BEN; first compound 0.01 µM): 0.292
- relative viability (BEN; first compound 0.03162 µM): 0.282
- relative viability (BEN; first compound 0.3162 µM): 0.268
- relative viability (SK-MES-1; first compound 0.03162 µM): 0.743
- relative viability (SK-MES-1; first compound 0.3162 µM): 0.743
- relative viability (SK-LU-1; first compound 0.03162 µM): 0.586
- relative viability (SK-LU-1; first compound 0.3162 µM): 0.517
- relative viability (LC-2-ad; first compound 0.01 µM): 0.544
- relative viability (LC-2-ad; first compound 0.03162 µM): 0.611
- relative viability (LC-2-ad; first compound 0.3162 µM): 0.528
- relative viability (NCI-H1437; first compound 0.01 µM): 0.298
- relative viability (NCI-H1437; first compound 0.03162 µM): 0.336
- relative viability (NCI-H1437; first compound 0.3162 µM): 0.345
- relative viability (NCI-H661; first compound 0.01 µM): 0.293
- relative viability (NCI-H661; first compound 0.03162 µM): 0.257
- relative viability (NCI-H661; first compound 0.3162 µM): 0.241
- relative viability (HCC-44; first compound 0.01 µM): 0.231
- relative viability (HCC-44; first compound 0.03162 µM): 0.4
- relative viability (HCC-44; first compound 0.3162 µM): 0.245
- relative viability (HCC-827; first compound 0.01 µM): 0.436
- relative viability (HCC-827; first compound 0.03162 µM): 0.42
- relative viability (HCC-827; first compound 0.3162 µM): 0.404
- relative viability (HCC-366; first compound 0.01 µM): 0.614
- relative viability (HCC-366; first compound 0.03162 µM): 0.641
- relative viability (HCC-366; first compound 0.3162 µM): 0.658

— the supplement of paper PMC10307832
